{"source": "patent EP0260606A2", "about": "“Medicament for curing neurotic disturbance or disorder comprising sialocylglycerolipid” (MECT CORPORATION, priority 1986, dated 1988)", "tested_on": "rats having their sciatic nerves crushed", "experiment": "Curing effect on rats with crushed sciatic nerve (distance between toes, weight of musculi soleus)", "type": "in vivo, rat", "conditions": "0.5 mg/kg, ip, average ± S.D.", "method": "The curing effect of the compound (I) of the invention on the rats having their sciatic nerves crushed, which were used as models caused by peripheral nervous disturbances, was assessed by examining (l) the change in action of the crushed hind leg and (2) the change in weight of the muscle as indicators for the modification of peripheral nerve and for the recovery course of the disturbance.\nIn the experiment, seven male Wister family rats (6 weeks age) were used per a group. The sciatic nerve of each rat was crushed in accordance with the method of Yamazu et al. (see Kiyomi Yamazu, Takenori Kaneko, Akifumi Kitahara and Isao Ohkawa, Journal of Japanese Pharmacological Society, 72, 259 - -268 (l976)) and in accordance with the method of Hasegawa et al. (see Kazuo Hasegawa, Naoji Mikuni and Yutaka Sakai, Journal of Japanese Pharmacological Society, 74, 72l - 734 (l978)). Specifically, under anesthesia with Pentobarbital (40 mg/kg, i.p.), the left sciatic nerve was exposed at the femur and the site 5 mm centrally from the branch portion between the N. tibialis and the N. suralis was crushed using a modified artery klemme having a width of 2 mm and gap of 0.l mm. Rats subjected to the operation were randomly dispensed to form the groups subjected to test.\nThe compound (I) of the invention was intraperitoneally administered one time per day from the day on which the nerve was crushed to the 22nd day. The control groups included a group administered with Mecobalamin (produced by Gedeon Richter Ltd.), a group administered with a 20% aqueous solution of propylene glycol (hereinafter referred to as 20% PG) which was used to dissolve the compound (I) of the invention, and a group administered with a 0.9% aqueous saline solution. The predetermined measurements were conducted with the lapse of time after the crushing operation (at the first, fourth, seventh, tenth, l4th, l5th, l7th, l9th 2lst and 28th days).\nThe distance between the toes was measured, since this is a good indicator showing the modification and recovery of the function of the nerve and the change thereof could conveniently measured with the lapse of time.\nThe measurement was conducted in accordance with the method of Hasegawa, (Hasegawa, K., Experientia, 34, 750 - 75l (l978)) by measuring the distance from the first toe to the fifth toe of the hind leg.\nThe ratio of the distance at the crushed side to the distance at the normal side was calculated as a percentage (%), the average values and the standard deviations (S.D.) being shown in Table 5.\nIt is known that removal of or disturbance in a certain nerve causes atrophy of the muscle controlled by the nerve, and the atrophy is gradually recovered by the recontrol by the nerve. For this reason, the quantitative change in weight of the muscle was selected as an indicator. At 28th day after the operation, the muscli soleus of both hind legs were extracted under anesthesia with Pentobarbital, and the weights of the muscles were weighed. The weight ratio of the muscli soleus at the crushed side to the muscli soleus at the normal side was calculated and represented by percentage (%)."}
{"smiles": "C/C1=C2/[N-][C@H]([C@H](CC(N)=O)[C@@]2(C)CCC(=O)NC[C@@H](C)OP(=O)([O-])O[C@H]2[C@@H](O)[C@@H](n3cnc4cc(C)c(C)cc43)O[C@@H]2CO)[C@]2(C)N=C(/C(C)=C3N=C(/C=C4N=C1[C@@H](CCC(N)=O)C\\4(C)C)[C@@H](CCC(N)=O)[C@]\\3(C)CC(N)=O)[C@@H](CCC(N)=O)[C@]2(C)CC(N)=O.[CH3-].[Co+3]", "note": "[Mecobalamine]", "values": [{"measurement": "Recovery Rate (%) in Distance between the Fingers", "setting": "17th Day", "value": "77.0 ± 10.7", "unit": "%"}, {"measurement": "Recovery Rate (%) in Distance between the Fingers", "setting": "19th Day", "value": "88.8 ± 5.1", "unit": "%"}, {"measurement": "Recovery Rate (%) in Weight of the Muscle", "setting": "28th Day", "value": "82.7 ± 5.1", "unit": "%"}]}
